Experiments:
HL-60 cells [1] = assay: NBT reduction of HL-60 cells after treatment (TPA stimulation, microscopy); format: cell-based, human; conditions: HL-60 treated 4 days, percentage of NBT reduction-positive cells of 200 cells
Procedure: Thereafter, the cells were smeared onto a slide glass, subjected to giemsa staining, and the coloration of cells was examined under a microscope. The number of colored cells was measured for 200 cells, and the results were expressed in terms of the percentage of NBT reduction- positive cells.

HL-60 cells [2] = assay: Binding property of monoclonal antibodies (MAS 072 anti-human monocyte, OKT 9 anti-human transferrin receptor) to treated HL-60 cells, indirect fluorescent antibody technique, FACS; format: cell-based; conditions: for Binding property of monoclonal antibody MAS072 (%): anti-human monocyte antibody, control 17.0; for Binding property of monoclonal antibody OKT9 (%): anti-human transferrin receptor antibody, control 95.7
Procedure: HL-60 cells wre treated with the agent as described above, and then stained by indirect fluorescent antibody technique using monoclonal antibodies [MAS 072 (Sera-lab) anti-human monocyte and OKT 9 (Ortho-mune) anti-human transferrin receptor] and a fluorescent antibody [FITC-anti-mouse IgG (Miles)], and the resulting fluorescence intensity was determined by FACS to obtain the binding property of the monoclonal antibody in terms of a percentage.

HL-60 cells [3] = assay: Proliferation-suppression rate of HL-60 cells (Coulter counter); format: cell-based; conditions: Homo sapiens, 96 h, HL-60, 4 days, relative to untreated group; for inhibition at 0.01 µM: 1x10^-8 M (column of 1α, 25-(OH)2D3 printed 1x10^8); for inhibition at 0.003 µM: 3x10^-9 M
Procedure: An HL-60 cell fluid adjusted to a concentration of 5 x 10^4 cells/ml was incorporated with each of the agents to be tested and cultivated in a carbon dioxide incubator at 37°C for 4 days. After the cultivation, the number of cells was measured by means of a Coulter counter. The percentage of the number thus measured relative to the number of cells in an untreated group was calculated, from which the proliferation-suppression rate was obtained.

[4] = 1x10^-8 M (column of 1α, 25-(OH)2D3 printed 1x10^8)

| Compound | NBT reduction rate (%) (HL-60 cells [1]; [4]) | NBT reduction rate (%) (HL-60 cells [1]; 3x10^-9 M) | Binding property of monoclonal antibody MAS072 (%) (HL-60 cells [2]; [4]) | Binding property of monoclonal antibody OKT9 (%) (HL-60 cells [2]; [4]) | Binding property of monoclonal antibody OKT9 (%) (HL-60 cells [2]; 3x10^-9 M) | inhibition at 0.01 µM (HL-60 cells [3]) | inhibition at 0.003 µM (HL-60 cells [3]) |
| --- | --- | --- | --- | --- | --- | --- | --- |
| C=C1C(=CC=C2CCCC3(C)C2CCC3C(C)CCCC(C(F)(F)F)C(F)(F)F)CC(O)CC1O (centres unmarked) [Compound A, 26,26,26,27,27,27-hexafluoro-la-hydroxyvitamin D3] | 91.5% | 77.0% | 79.0% | 11.1% | 16.7% | 74.9% | 58.5% |
| C=C1C(=CC=C2CCCC3(C)C2CCC3C(C)CCCC(C)(C)O)CC(O)CC1O (stereo not drawn) [1α, 25-(OH)2D3, 1α, 25-dihydroxyvitamin D3] | 87.0% | 48.5% | 55.8% | 22.6% | 61.5% | 66% | 47.2% |

— EP0205025A1, “Fluorine derivatives of vitamin D3 and cell differentiation-inducing agents containing the same as an active ingredient” (SUMITOMO PHARMACEUTICALS COMPANY, LIMITED, priority 1985, dated 1986)
